Assay results: patent US20080199847A1, “Method for Predicting the Metabolism of Drug in Human Liver and Liver Function” (Daiichi Pure Chemicals Co., Ltd., priority 2004, published 2008)
“And” between values parts separate entries of the source, which are not always exact repeats. Equal entries are not always repeated.

Assay: Radioactivity levels of tissue and plasma samples two hours after administration
Conditions: 5 mg/kg iv
Description: Chimeric mice from PhoenixBio Co., Ltd. were employed.
The pH of the solution was adjusted to 7.0 with a 0.1% aqueous citric acid solution, and the concentration was adjusted to 1 mg/mL with distilled water for injection. The liquid was bolus-administered at 5 mL/kg to the caudal vein of the mice (5 mg/5 mL/kg).
Livers and kidneys were taken from other mice two hours after administration, following sacrificing through exsanguination. Blood plasma was collected by sampling blood through the orbital venousplexus and centrifuging it. Bile was collected from the chimeric mice and the control mice through bile duct cannulation until 72 hours after administration.
Radioactivity of each sample was determined by use of a liquid scintillator (Hionic-flow, product of Perkin-Elmer) with Tri-Carb 2500 (Perkin-Elmer) as a liquid scintillation counter. The measurement was performed for two minutes.
In analysis of blood plasma, bile, and urine, the sample (10 μL) was collected in a 20-mL glass vial, added Hionic-flow (10 mL), and the mixture was analyzed.
In analysis of tissue samples (liver and kidney), an amount 3-fold (by weight) of acetate buffer (0.1M, pH3.0) was added to each sample, and the mixture was homogenized with a polytron-homogenizer. An aliquot (50 μL) of the homogenate was solubilized with 2 mL of Soluene 350 (Perkin-Elmer), added Hionic-flow (10 mL), and the mixture was analyzed.

## CC(C(=O)O)c1cccc(C(=O)c2ccccc2)c1 (centres unmarked) [ketoprofen, Ketoprofen]
Chimeric mice
  Concentration (radioactivity level), kidney: 5.03±1.25 μg eq./mL and 5.03 μg eq./mL
Control mice
  Concentration (radioactivity level), kidney: 4.70±0.61 μg eq./mL and 4.70 μg eq./mL
